Data reported in patent publication US4816474A, “Amino substituted thienothiopyran derivatives, composition containing them, and method of using them to stimulate presynaptic dopamine receptors” (Ciba-Geigy Corporation, priority 1987, dated 1989).
Structures can show the parent of a compound that is named as a salt.

Tests used:
[1] = tested on: presynaptic dopamine receptor (dopamine autoreceptor); test: GBL model in the rat: in-vivo presynaptic dopamine agonist (dopamine autoreceptor agonist) activity, inhibition of GBL-induced DOPA accumulation; conditions: dose inhibiting DOPA accumulation by 50%
Method: The in-vivo presynaptic dopamine agonist activity (also called dopamine autoreceptor agonist activity) is determined in the rat gamma-butyrolactone (GBL) model by a modification of the procedure described by Walters and Roth, Naunyn Schmiedeberg's Arch. Pharmacol. 296, 5 (1976). In this model, a presynaptic dopamine agonist inhibits the GBL-induced accumulation of the dopamine precursor DOPA in the brain after pretreatment with 3-hydroxybenzylhydrazine (NDS-1015), a DOPA decarboxylase inhibitor.
Test compounds are dissolved in 0.9% saline, with sodium metabisulfite to prevent oxidation, if required. Animals are treated with i.p. injections of solutions of test compounds or saline, followed by gamma-butyrolactone (GBL, 750 mg/kg i.p.) or saline for control animals 15 minutes later, and finally with NSD-1015 (100 mg/kg i.p.) 5 minutes after the administration of GBL. Thirty minutes after the administration of NSD-1015, animals are sacrificed, brains are removed, and striatae are isolated, then frozen at -70° C. until deproteinization, extraction and analysis. The ED50 (dose at which the DOPA accumulation is inhibited by 50%) values are determined by plotting the percent inhibition of DOPA accumulation versus log10 of the dose of test compound administered. The same method is also applicable to oral administration of the test compounds.

[2] = target: presynaptic dopamine receptor; test: 3H-ADTN presynaptic dopamine receptor binding assay (displacement of 3H-ADTN from calf caudate nucleus membranes); conditions: inhibition of specific binding of 0.2 nM 3H-ADTN by 50%, 60 min, 25° C.
Method: The presynaptic dopamine receptor binding properties indicative of the presynaptic dopamine receptor regulatory, e.g. agonistic activity, of the compounds of the invention can be determined in the dopamine binding assay in vitro by the following method involving the displacement of the dopamine agonist 2-amino-6,7-dihydroxy-1,2,3,4-tetrahydronaphthalene (^3 H-ADTN) from membranes of calf-caudate nucleus.
In the binding assay, triplicate 2 ml samples (equivalent to 5 mg/ml of brain tissue) of the calf brain caudate nucleus membrane suspension are incubated for 60 minutes at 25° C. with 0.2 nM ^3 H-ADTN without or in the presence of various concentrations of test compound in solvent. The reaction is terminated by filtering with 5 ml of cold 50 mM Tris-HCl buffer pH 7.7. The filters are placed in scintillation vials with 5 ml of scintillation solution, disrupted by vigorous mechanical shaking for 90 minutes, and counted for radioactivity.
The IC50 values which represent the concentration of test compounds required to inhibit the specific binding of 0.2 nM ^3 H-ADTN by 50% are determined graphically.

Row | IC50 [2] [µM] | SMILES | ED50 in the GBL model ([1]; i.p.) | ED50 in the GBL model ([1]; p.o.) [mg/kg]
1 | – | CCCN(CCC)C1CSc2sccc2C1 (stereo not drawn) [5-dipropylamino-5,6-dihydro-4H-thieno[2,3-b]thiopyran] | about 2.6 mg/kg | ~5.6
2 | ~0.15 | CCCN(CCC)C1CSc2sccc2C1 (stereo not drawn) [N,N-dipropyl-5,6-dihydro-4H-thieno[2,3-b]thiopyran-5-amine hydrochloride] | – | –
